Columns and labels:
[1] = tested on: human anagen VI hair follicles; assay: Melanogenesis, Fontana Masson staining measured by Image J, assay #1; assay type: cell-based; settings: for Mean relative darkening of the groups (measured by image J), Mean: 9 days, dark=small index number, light=high index number
Experimental: Assay #1 Culture HF429: Hair follicles were grown in the wells of a microtiter plate (3 follicles per well) and treated for 9 days with culture medium and test substance as indicated in FIG. 1. Thereafter, elongation, melanogenesis and hair cycle stage were determined.
Fontana Masson staining was performed at the end of the culture period and photos taken of snap frozen sections. The photos were analysed (Image J, public domain, developed at the National Institutes of Health, USA) by measuring the density of two squares, consisting of 150×150 dots, placed over the darkest areas on both sides of the dermal papilla. For Fontana-Masson staining, fixed sections were treated in darkness for 40 minutes with a solution containing 10% silver nitrate (Merck & Co., Inc., Whitehouse Station, N.J., USA; CatNo 1.01512.0100), following by a development in solution containing 5% sodium thiosulphate (Merck & Co., Inc.; CatNo 1.06512.2500) for 1 minute and multiple washings in distilled water for 3 minutes. Counterstaining with 0.5% Neutralrot (Chroma Muenster, Germany, CatNo 2E038). Then dehydration in xylol and covering with Eukitt (O. Kindler GmbH, Freiburg, Germany; CatNo E115).
(§1) All data were analysed by two-tailed unpaired t-test (SPSS analysis software SPSS Inc., Chicago, USA). For determination of elongation, two outliers at top and bottom end of value range were eliminated; with the measurement of melanogenesis one outlier at both, top and bottom range, was eliminated. Results are given as mean value and standard error of measurement (SEM).
Micro-dissected anagen VI hair follicles were treated as above described. At the end of the culture period Fontana Masson staining was performed and photos were taken of the snap frozen sections. The pictures were analysed by measuring the darkness (brightness) of two squares, consisting of 150×150 dots, placed over the darkest areas on both sides of the dermal papilla (dark=small index number, light=high index number). The shading of the different groups was compared to each other and the results were analysed using Student's t-test. The results are shown below in Table 5 and FIG. 7.

[2] = tested on: human anagen VI hair follicles; assay: Hair shaft elongation of organ-cultured hair follicles, assay #3 (culture HF 446); assay type: cell-based
Experimental: (§2) Human anagen VI hair follicles were isolated from scalp skin obtained from three different individuals undergoing routine face-lift surgery. All experiments were performed according to Helsinki guidelines.
(§3) Hair follicles were isolated as described (Philpott MP et al, Human hair growth in vitro; J Cell Science 1990, 97(Pt 3):463-71). Isolated HFs were maintained in supplemented, serum-free Williams E medium (Biochrom, Cambridge, UK) supplemented with 2 mMol/L L-glutamine (Invitrogen, Paisley, UK), 10 ng/mL hydrocortisone (Sigma-Aldrich, Taufkirchen, Germany), 10 μg/mL insulin (Sigma-Aldrich), and 1% antibiotic/antimycotic mixture (Gibco, Karlsruhe, Germany). Hair follicles were placed in a 24-well plate with 500 μL medium (day 0) and incubated in a CO2-incubator (5% CO2, 37° C.) over night without any treatment. The next day (day 1) medium was exchanged and test substance was added to each well (5 μL of stock solution was added to 495 μL culture medium). The medium or medium with test substance was changed every 48 hours.
Assay #3 Culture HF 446: Eight hair follicle cultures (3 follicles/well) were treated with various concentration of test substance as described for 2 days, followed by snap freezing and sectioning of two wells. Six wells were treated up to 9 days, then snap frozen and sectioned. The distribution of test substances and concentrations were as indicted in FIG. 3. The parameter measured after two days was proliferation/apoptosis, and the parameters measured after 9 days were elongation, proportion of cells in proliferation/apoptosis, and hair cycle stage
(§4) Hair shaft length measurements were performed every second day on individual hair follicles using a binocular microscope with an eyepiece measuring reticule. The length of the follicle was defined as the distance between the base of the bulb and the cut end of the hair fibre (Philpott MP et al, Human hair growth in vitro; J Cell Science 1990, 97(Pt 3):463-71).
as §1

[3] = tested on: human anagen VI hair follicles; assay: Hair shaft elongation of organ-cultured hair follicles, assay #2 (culture HF 441); assay type: cell-based
Experimental: as §2, §3, §4, §1

[4] = tested on: TSH; assay: Immunohistochemical staining of treated hair follicles for TSH (assay #6); assay type: cell-based, human; settings: few slides only
Experimental: Assay #6—Stimulation of expression of pituitary hormones by Thymulin (PRL+TSH): Hair follicles from the occipital area of a person were cultured for 9 days and treated with culture medium and thymulin 10 pg/mL (human thymulin, No A9530AG.1; Immundiagnostik AG, Bensheim, Germany) as described above, then snap frozen and sectioned. The staining was performed according to the following protocol:
B. TSH: Pre-incubation with 10% goat serum (Dako Cytomation, CatNo 50114121) in TBS for 20 minutes, then incubation with primary antibody (mouse anti-human TSH, Dianova, Hamburg, Germany, CatNo DLN 07830), dilution 1:20 in TBS+2% goat serum (Dako Cytomation, CatNo 50114121) overnight at 4° C. Thereafter washing in TBS. Incubation with secondary antibody (goat anti-mouse-biotinylated, Beckman Coulter, Inc. Fullerton, Calif., USA, CatNo IM0816) diluted to 1:200 with 2% goat serum in TBS for 45 minutes at room temperature. Treatment with avidin/biotin-complex coupled with alkaline phosphatase (Vector Laboratories, Burlingame, Calif., USA; CatNo AK-5000) for 30 minutes, then washes in TBS. Thereafter treatment with Fast Red Tablets (Sigma-Aldrich, CatNo F4648-50SET) for 6 minutes. Counterstaining with Mayer's Haemalaun (Chroma Muenster, CatNo 2E038) and mounting with Aquamount (DAKO Cytomation, CatNo S3025). […]

With thymulin the “Fontana Masson staining (melanin) compared with control group (in words)” value ([1]; 10 pg/mL) was “significantly more staining”, the “Mean relative darkening of the groups (measured by image J), Mean” value (“Mean relative darkening of the groups” below) ([1]; 10 pg/mL) was 75.73 and the “Mean relative darkening of the groups” value ([1]; 100 pg/mL) was 90.48. The “Mean elongation in % compared to day 0” value ([2]; 10 pg/mL, Day 0) was 0%, the “Mean elongation in % compared to day 0” value ([2]; 10 pg/mL, Day 1) was 7.30% and the “Mean elongation in % compared to day 0” value ([2]; 10 pg/mL, Day 3) was 45.35%. The “Mean elongation in % compared to day 0” value ([2]; 10 pg/mL, Day 5) was 58.41%, the “Mean elongation in % compared to day 0” value ([2]; 10 pg/mL, Day 7) was 67.70% and the “Mean elongation in % compared to day 0” value ([2]; 10 pg/mL, Day 9) was 78.70%. The “Mean elongation in % compared to day 0” value ([2]; 100 pg/mL, Day 0) was 0%, the “Mean elongation in % compared to day 0” value ([2]; 100 pg/mL, Day 1) was 5.86% and the “Mean elongation in % compared to day 0” value ([2]; 100 pg/mL, Day 3) was 40.11%. For the same substance, the “Mean elongation in % compared to day 0” value ([2]; 100 pg/mL, Day 5) was 62.88%, the “Mean elongation in % compared to day 0” value ([2]; 100 pg/mL, Day 7) was 80.67% and the “Mean elongation in % compared to day 0” value ([2]; 100 pg/mL, Day 9) was 94.36%. For the same substance, the “Mean elongation in % compared to day 0” value ([3]; 10 pg/mL, Day 3) was 20.86%, the “Mean elongation in % compared to day 0” value ([3]; 10 pg/mL, Day 5) was 34.97% and the “Mean elongation in % compared to day 0” value ([3]; 10 pg/mL, Day 7) was 43.26%. For the same substance, the “Mean elongation in % compared to day 0” value ([3]; 10 pg/mL, Day 9) was 58.90%, the “Mean elongation in % compared to day 0” value ([3]; 10 pg/mL, Day O) was 0% and the “Immunoreactivity for TSH, treated versus control hair follicles (in words)” value [4] was “Did not Show any Differences”.

For Thymosin beta-4 [TB4], the “Mean relative darkening of the groups” value ([1]; 100 ng/mL) was 101.04, the “Mean relative darkening of the groups” value ([1]; 1000 ng/mL) was 85.52 and the “Influence on HF melanogenesis (in words)” value ([1]; quantitative Masson-Fontana histochemistry) was “did not influence HF melanogenesis”. The “Mean elongation in % compared to day 0” value ([2]; 100 ng/mL, Day 0) was 0%, the “Mean elongation in % compared to day 0” value ([2]; 100 ng/mL, Day 1) was 5.91% and the “Mean elongation in % compared to day 0” value ([2]; 100 ng/mL, Day 3) was 42.55%. The “Mean elongation in % compared to day 0” value ([2]; 100 ng/mL, Day 5) was 59.58%, the “Mean elongation in % compared to day 0” value ([2]; 100 ng/mL, Day 7) was 73.62% and the “Mean elongation in % compared to day 0” value ([2]; 100 ng/mL, Day 9) was 83.13%. For the same substance, the “Mean elongation in % compared to day 0” value ([2]; 1000 ng/mL, Day 0) was 0%, the “Mean elongation in % compared to day 0” value ([2]; 1000 ng/mL, Day 1) was 8.28% and the “Mean elongation in % compared to day 0” value ([2]; 1000 ng/mL, Day 3) was 39.17%. The “Mean elongation in % compared to day 0” value ([2]; 1000 ng/mL, Day 5) was 53.52%, the “Mean elongation in % compared to day 0” value ([2]; 1000 ng/mL, Day 7) was 65.51% and the “Mean elongation in % compared to day 0” value ([2]; 1000 ng/mL, Day 9) was 70.08%. The “Rate of hair growth compared with control (in words)” value ([2]; 1000 ng/mL, p<0.05) was “significantly lowered rate of hair growth”, the “Mean elongation in % compared to day 0” value ([3]; 100 ng/mL, Day 3) was 19.35% and the “Mean elongation in % compared to day 0” value ([3]; 100 ng/mL, Day 5) was 31.66%. The “Mean elongation in % compared to day 0” value ([3]; 100 ng/mL, Day 7) was 41.77%, the “Mean elongation in % compared to day 0” value ([3]; 100 ng/mL, Day 9) was 49.94% and the “Mean elongation in % compared to day 0” value ([3]; 100 ng/mL, Day O) was 0%. For the same substance, the “Mean elongation in % compared to day 0” value ([3]; 1000 ng/mL, Day 3) was 21.68%, the “Mean elongation in % compared to day 0” value ([3]; 1000 ng/mL, Day 5) was 32.59% and the “Mean elongation in % compared to day 0” value ([3]; 1000 ng/mL, Day 7) was 37.48%. The “Mean elongation in % compared to day 0” value ([3]; 1000 ng/mL, Day 9) was 43.30% and the “Mean elongation in % compared to day 0” value ([3]; 1000 ng/mL, Day O) was 0%.

Source: patent US20110281802A1, “COMPOSITION FOR TREATMENT AND PREVENTION OF HAIR LOSS AND PREMATURE GRAYING OF HAIR” (Immudiagnostik AG, priority 2007, published 2011)
